Data published in patent US20220168243A1 (priority 2020, published 2022).

Experiments:
[1] = test system: coronaviruses (MERS; SARS-1; SARS-2); conditions: cited from earlier work
SARS-CoV-2 = format: cell-based, SARS-CoV-2 (USA-WA1/2020)
Vero E6 cells = assay: Toxicity: CellTiter-Blue Cell Viability Assay

| Structure (SMILES) | CoV Inhibition [1] | % Inhibition at HIGHEST Non-toxic Concentration (SARS-CoV-2) | TOXICITY Y/N (Vero E6 cells) |
| --- | --- | --- | --- |
| CC(C)NCC(O)COc1cccc2ccccc12 (stereo not shown) [propranolol, reference compound] | MERS; SARS-1 |  |  |
| CCSc1ccc2c(c1)N(CCCN1CCN(C)CC1)c1ccccc1S2 [thiethylperazine] | SARS-2; and MERS |  |  |
| CCN(CCCc1ccccc1)CCCc1ccccc1 [Alverine] |  | 30% |  |
| CC(C)N1CCN(c2ccc(OCC3COC(Cn4cncn4)(c4ccc(Cl)cc4Cl)O3)cc2)CC1 (stereo not shown) [terconazole, reference compound] | MERS; SARS-1 |  |  |
| CC(CN1c2ccccc2Sc2ccccc21)N(C)C (stereo not shown) [promethazine] | MERS |  |  |
| CC(COc1ccccc1)N(CCCl)Cc1ccccc1 (stereo not shown) [Phenoxybenzamine] |  | 95% |  |
| Cc1cn(-c2cc(NC(=O)c3ccc(C)c(Nc4nccc(-c5cccnc5)n4)c3)cc(C(F)(F)F)c2)cn1 [Nilotinib] |  | 60% |  |
| CCN(CC)CCCC(C)Nc1ccnc2cc(Cl)ccc12 (stereo not shown) [chloroquine] | MERS |  |  |
| CNCCCN1c2ccccc2CCc2ccccc21 [Desipramine, reference compound] | MERS; SARS-1 and MERS | 60% | Very weak |
| COc1cc2nc(N3CCN(C(=O)C4COc5ccccc5O4)CC3)nc(N)c2cc1OC (stereo not shown) [doxazosin, reference compound] | MERS; SARS-1 |  |  |
| Fc1ccc(C(c2ccc(F)cc2)N2CCN(C/C=C/c3ccccc3)CC2)cc1 [Flunarizine] |  | 80% |  |
| CC(C)COCC(CN(Cc1ccccc1)c1ccccc1)N1CCCC1 (stereo not shown) [Bepridil, reference compound] |  | 60% |  |
| Cc1ccc(NC(=O)c2ccc(CN3CCN(C)CC3)cc2)cc1Nc1nc(-c2cccnc2)cs1 [Masitinib] |  | 90% |  |
| NC(=O)C(c1ccccc1)(c1ccccc1)[C@@H]1CCN(CCc2ccc3c(c2)CCO3)C1 [Darifenacin] |  | 45% |  |
| COc1c(C)c2c(c(O)c1C/C=C(\C)CCC(=O)OCCN1CCOCC1)C(=O)OC2 [mycophenolate_mofetil, reference compound] | MERS; SARS-1 |  |  |
| CN(C)CCCN1c2ccccc2CCc2ccc(Cl)cc21 [clomipramine] | MERS |  |  |
| CN(C)CCCN1c2ccccc2Sc2ccc(Cl)cc21 [chlorpromazine] | SARS-2; |  |  |
| CCN(CC)Cc1cc(Nc2ccnc3cc(Cl)ccc23)ccc1O [amodiaquine] | SARS-2; and MERS |  |  |
| CCN(CCO)CCCC(C)Nc1ccnc2cc(Cl)ccc12 (stereo not shown) [hydroxychloroquine] | SARS-2; and MERS |  |  |
| CCCCC1C(=O)N(c2ccccc2)N(c2ccccc2)C1=O [Phenylbutazone] |  | 90% |  |
| C=CCc1ccccc1OCC(O)CNC(C)C (stereo not shown) [alprenolol] | MERS |  |  |
| OCCOc1ccc(/C(=C(/CCCl)c2ccccc2)c2ccccc2)cc1 [Ospemifene] |  | 45% |  |
| CN(C)CCCN1c2ccccc2Sc2ccccc21 [Promazine, reference compound] | MERS; SARS-1 and MERS | 70% | Very weak |
| OCCN1CCN(CCCN2c3ccccc3Sc3ccc(C(F)(F)F)cc32)CC1 [fluphenazine] | SARS-2; and MERS |  |  |
